This note sets out measurements from PubChem BioAssay (NCI).

Among the test systems are CAKI-1 renal; SF-295 CNS; MDA-N; BT-549 breast; M14 melanoma; EKVX NSCLC; SK-MEL-5 melanoma; HOP-62 NSCLC; MALME-3M melanoma; SF-539 CNS; OVCAR-4 ovarian; 786-0 renal; SK-MEL-2 melanoma; UACC-257 melanoma; PC-3 prostate; CCRF-CEM leukemia; RPMI-8226 leukemia; MOLT-4 leukemia; HS 578T breast; SW-620 colon.
What all share (experiment): NCI anticancer screen, dose series, 48 h

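Following 48 hours of exposure in 96-well plates, responses at five concentrations were used to interpolate endpoints linearly. TGI denotes the concentration required for complete inhibition of growth.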 A value given as a limit tells only on which side of the number the result lay.

Take `O=C1C=C(NCC(c2ccccc2)c2ccccc2)C(=O)c2ncccc21`: the TGI in the experiment on CAKI-1 renal amounted to 11.4 µM; in the experiment on SF-295 CNS it was 3.51 µM; with MDA-N, 3.38 µM; in the experiment with BT-549 breast it was 5.09 µM; in the experiment on M14 melanoma it was 3.25 µM; in the experiment with EKVX NSCLC, 7.83 µM. For the same molecule, the TGI is 1.62 µM in the experiment with SK-MEL-5 melanoma; 4.02 µM with HOP-62 NSCLC; 3.4 µM in the experiment with MALME-3M melanoma; 8.55 µM in the experiment with SF-539 CNS; 7.29 µM in the experiment with OVCAR-4 ovarian; 15.3 µM in the experiment with 786-0 renal. Further, the TGI is 9.13 µM in the experiment with SK-MEL-2 melanoma; 2.45 µM in the experiment with UACC-257 melanoma; 6.24 µM in the experiment with PC-3 prostate; 9.7 µM in the experiment on CCRF-CEM leukemia; 5.84 µM with RPMI-8226 leukemia; 6.91 µM in the experiment with MOLT-4 leukemia. Also, the TGI in the experiment with HS 578T breast came to 12.3 µM.

Take `CCOC(=O)N/N=C(\CC)NO`: the TGI in the experiment on CAKI-1 renal, with MDA-N, with BT-549 breast, in the experiment on EKVX NSCLC, in the experiment on SW-620 colon and in the experiment with SK-MEL-5 melanoma was above 100 µM each time. Besides, the TGI with HOP-62 NSCLC, in the experiment on MALME-3M melanoma, in the experiment on SF-539 CNS, in the experiment with OVCAR-4 ovarian, with 786-0 renal and in the experiment on SK-MEL-2 melanoma was above 100 µM in each case. In addition, the TGI in the experiment on UACC-257 melanoma, in the experiment with PC-3 prostate, in the experiment with CCRF-CEM leukemia, with RPMI-8226 leukemia, in the experiment on MOLT-4 leukemia and in the experiment on HS 578T breast was above 100 µM each time.

Take `COC(=O)c1sc2c(c1C(=O)OC)C(=NC(C)(C)C)SC2=NC(C)(C)C`: the TGI was found to be 32.6 µM in the experiment on CAKI-1 renal; 36.6 µM with SF-295 CNS; 34 µM with MDA-N; 35.4 µM with BT-549 breast; 32.2 µM in the experiment on M14 melanoma; 34.7 µM in the experiment with EKVX NSCLC. In addition, the TGI with SW-620 colon was 35.4 µM; with SK-MEL-5 melanoma it was 29.5 µM; in the experiment with HOP-62 NSCLC it was 39 µM; with MALME-3M melanoma, 37.8 µM; in the experiment on SF-539 CNS, 34.1 µM; with OVCAR-4 ovarian, 44 µM. The TGI was determined as 30.4 µM with 786-0 renal; 33.1 µM in the experiment on SK-MEL-2 melanoma; 32.6 µM with UACC-257 melanoma; 37 µM in the experiment with PC-3 prostate; 33.5 µM in the experiment on CCRF-CEM leukemia; 41.4 µM in the experiment on RPMI-8226 leukemia. Also, the TGI in the experiment on MOLT-4 leukemia worked out at 31.8 µM; in the experiment on HS 578T breast it was 57.5 µM.

In the case of `COc1ccc(/C=C2\CCC(C)c3c2nc(N)c(C#N)c3-c2ccc(OC)c(OC)c2)cc1OC` (stereo unspecified), the TGI is above 100 µM in the experiment on CAKI-1 renal; above 100 µM in the experiment with SF-295 CNS; above 100 µM in the experiment with MDA-N; above 100 µM with BT-549 breast; above 100 µM with M14 melanoma; 8.53 µM in the experiment on EKVX NSCLC. For the same molecule, the TGI with SW-620 colon is above 100 µM; in the experiment with SK-MEL-5 melanoma, above 100 µM; with HOP-62 NSCLC, 9.95 µM; in the experiment with MALME-3M melanoma, above 100 µM; in the experiment on SF-539 CNS it was above 100 µM; in the experiment on 786-0 renal, above 100 µM. Further, the TGI was above 100 µM in the experiment on SK-MEL-2 melanoma; 75.5 µM in the experiment on UACC-257 melanoma; above 100 µM in the experiment with PC-3 prostate; above 100 µM in the experiment with CCRF-CEM leukemia; above 100 µM in the experiment on RPMI-8226 leukemia; above 100 µM in the experiment with MOLT-4 leukemia. This molecule also had a TGI in the experiment on HS 578T breast above 100 µM.

With `Cc1ccc(C(C)C)c(OCC(=O)N/N=C/c2c[nH]c3ccc(Br)cc23)c1`, the TGI stood at 11.5 µM in the experiment on CAKI-1 renal; 10.7 µM in the experiment with SF-295 CNS; 2.94 µM in the experiment on MDA-N; 18.7 µM in the experiment on BT-549 breast; 4.63 µM with M14 melanoma; 11.1 µM in the experiment with EKVX NSCLC. Besides, the TGI is 18.6 µM with SW-620 colon; 4.43 µM with SK-MEL-5 melanoma; 22 µM in the experiment with HOP-62 NSCLC; 21.8 µM with MALME-3M melanoma; 4 µM in the experiment on SF-539 CNS; 13.6 µM in the experiment on OVCAR-4 ovarian. The TGI in the experiment on 786-0 renal is 12.6 µM; in the experiment with SK-MEL-2 melanoma, 7.22 µM; in the experiment with UACC-257 melanoma it was 15.9 µM; in the experiment on PC-3 prostate, 4.43 µM; in the experiment with CCRF-CEM leukemia, 7 µM; in the experiment with RPMI-8226 leukemia, 7.32 µM. The TGI in the experiment on MOLT-4 leukemia amounted to 14.2 µM; in the experiment with HS 578T breast, 20.2 µM.

In the case of `N#C/C(=C\c1ccc([N+](=O)[O-])o1)c1n[nH]c(Cc2ccccc2)n1`, the TGI in the experiment on CAKI-1 renal came out at 3.96 µM; in the experiment on SF-295 CNS, 20.1 µM; in the experiment with MDA-N it was 4.52 µM; with BT-549 breast, 8.46 µM; in the experiment with M14 melanoma, 3.92 µM; in the experiment with EKVX NSCLC it was 8.31 µM. Besides, the TGI with SW-620 colon is above 100 µM; in the experiment with SK-MEL-5 melanoma, 2.51 µM; in the experiment on HOP-62 NSCLC it was 5.92 µM; with MALME-3M melanoma it was 4.4 µM; in the experiment on SF-539 CNS it was 5.78 µM; in the experiment with OVCAR-4 ovarian, 3.55 µM. The TGI in the experiment on 786-0 renal is 3.85 µM; in the experiment with SK-MEL-2 melanoma, 4.34 µM; with UACC-257 melanoma, 4.26 µM; in the experiment with PC-3 prostate it was 7.43 µM; in the experiment with CCRF-CEM leukemia, 1.81 µM; in the experiment with RPMI-8226 leukemia, 1.4 µM. Moreover, the TGI is above 100 µM with MOLT-4 leukemia and 21 µM in the experiment with HS 578T breast.

For the molecule `O=C1N/C(=N\N=C\c2ccccc2)C2(CCCCC2)O1`, the TGI in the experiment on CAKI-1 renal, in the experiment on SF-295 CNS, in the experiment on MDA-N, in the experiment on BT-549 breast, with M14 melanoma and with EKVX NSCLC was above 100 µM in each case. The TGI in the experiment on SW-620 colon, with SK-MEL-5 melanoma, with HOP-62 NSCLC, in the experiment on MALME-3M melanoma, with SF-539 CNS and with OVCAR-4 ovarian was above 100 µM each time. The TGI in the experiment with 786-0 renal was above 100 µM; with SK-MEL-2 melanoma, above 100 µM; with UACC-257 melanoma, above 100 µM; in the experiment with PC-3 prostate, above 100 µM; in the experiment on CCRF-CEM leukemia, 61.1 µM; with RPMI-8226 leukemia, above 100 µM. The TGI in the experiment on MOLT-4 leukemia and in the experiment with HS 578T breast was above 100 µM in each case.
